The results in this text go back to patent publication US9815843B2, “Compound, photosensitive resin composition comprising the same, and color filter” (Samsung SDI Co., Ltd., priority 2015, dated 2017).

The data set is described as follows: Solubility measurement in dilution solvent (PGMEA). Format: physicochemical. The following applies: 0.5 g compound, 25° C., 100 rpm, one hour. Here is the method:
A dilution solvent (PGMEA) is respectively added to 0.5 g of the compounds according to Synthesis Examples 8 to 17 and Comparative Synthesis Examples 1 and 2, and each solution is stirred with a mixrotar (MIXROTAR VMR-5, Iuchi Seieido Co., Ltd.) at 25° C. and 100 rpm for one hour.
Reference for Solubility Evaluation
Greater than or equal to 10 wt % of a compound (a solute) is dissolved based on the total amount of a dilution solvent: ∘
Greater than or equal to 5 wt % but less than 10 wt % of a compound (a solute) is dissolved based on the total amount of a dilution solvent: Δ
Less than 5 wt % of a compound (a solute) is dissolved based on the total amount of a dilution solvent: X

With `CCCCCOc1c(Cl)c(Cl)c2c(c1Cl)C1=NC/2=N\c2c3c(Cl)c(Cl)c(OCCCCC)c(Cl)c3c3[n]2[Zn][n]2/c(c4c(Cl)c(Cl)c(OCCCCC)c(Cl)c4/c2=N/1)=N\C1=NC(=N\3)/c2c(Cl)c(Cl)c(OCCCCC)c(Cl)c21` [Comparative Synthesis Example 2], the Solubility result is given as “Δ (Greater than or equal to 5 wt % but less than 10 wt % of a compound (a solute) is dissolved based on the total amount of a dilution solvent)”.
